Measurements published in ChEMBL document CHEMBL1137582, “Quinazoline and benzimidazole MCH-1R antagonists” (Bioorg Med Chem Lett, 2007).
pIC50: −log10 of the molar value. Values belong to the compound of their own block, whether it stands above or below them. Calls of active or inactive are those of the source. The calls are words filed in the database; no cut-off is given here.

Legend:
[1] = target: T1, Melanin-concentrating hormone receptor 1 (Homo sapiens, UniProt Q99705); test: Inhibition of 125I-[Phe13,Tyr19]-MCH binding to MCH-R1 expressing cell membranes at 1uM
[2] = target: T1, Melanin-concentrating hormone receptor 1; test: Displacement of 125I-[Phe13,Tyr19]-MCH from MCH-R1 expressing cell membranes
[3] = target: T1, Melanin-concentrating hormone receptor 1; test: Inhibition of MCH-mediated calcium influx into MCH-R1 expressing cells; type: functional
[4] = target: T2, Melanin-concentrating hormone receptor 2 (Homo sapiens, UniProt Q969V1); test: Inhibition of MCH-R2
[5] = target: T3, 5-hydroxytryptamine receptor 2C (Homo sapiens) (UniProt P28335); test: Inhibition of 5HT2C at 10uM
T3 sequence (whole entry): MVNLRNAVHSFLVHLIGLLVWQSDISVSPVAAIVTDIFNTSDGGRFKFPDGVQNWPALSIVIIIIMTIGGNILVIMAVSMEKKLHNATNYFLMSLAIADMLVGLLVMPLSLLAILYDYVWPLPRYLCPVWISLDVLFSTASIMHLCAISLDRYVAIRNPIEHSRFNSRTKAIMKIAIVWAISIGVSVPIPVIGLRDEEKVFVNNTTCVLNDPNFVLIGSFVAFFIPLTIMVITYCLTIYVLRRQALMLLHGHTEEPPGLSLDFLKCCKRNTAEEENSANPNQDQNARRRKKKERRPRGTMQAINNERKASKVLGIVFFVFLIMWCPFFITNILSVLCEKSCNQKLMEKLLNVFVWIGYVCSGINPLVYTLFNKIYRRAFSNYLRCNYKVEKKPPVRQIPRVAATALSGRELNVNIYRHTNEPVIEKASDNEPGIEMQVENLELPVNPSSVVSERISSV

Cytochrome P450 2C9 = Cytochrome P450 2C9 (Homo sapiens, UniProt P11712); test: Inhibition of human CYP2C9 at 1uM; type: ADME
Cytochrome P450 2D6 = Cytochrome P450 2D6 (Homo sapiens, UniProt P10635); test: Inhibition of human CYP2D6 at 1uM; type: ADME
Cytochrome P450 3A4 = Cytochrome P450 3A4 (Homo sapiens, UniProt P08684); test: Inhibition of human CYP3A4 at 1uM; type: ADME
[6] = Solubility at pH7.4; type: physicochemical; conditions: buffer, pH 7.4
D(2) dopamine receptor [7] = target: T4, D(2) dopamine receptor (Homo sapiens, UniProt P14416); test: Inhibition of D2(L) at 10uM
Cytochrome P450 1A2 = target: T5, Cytochrome P450 1A2 (Homo sapiens, UniProt P05177); test: Inhibition of human CYP1A2 at 1uM; type: ADME
T5 sequence (P05177 whole entry): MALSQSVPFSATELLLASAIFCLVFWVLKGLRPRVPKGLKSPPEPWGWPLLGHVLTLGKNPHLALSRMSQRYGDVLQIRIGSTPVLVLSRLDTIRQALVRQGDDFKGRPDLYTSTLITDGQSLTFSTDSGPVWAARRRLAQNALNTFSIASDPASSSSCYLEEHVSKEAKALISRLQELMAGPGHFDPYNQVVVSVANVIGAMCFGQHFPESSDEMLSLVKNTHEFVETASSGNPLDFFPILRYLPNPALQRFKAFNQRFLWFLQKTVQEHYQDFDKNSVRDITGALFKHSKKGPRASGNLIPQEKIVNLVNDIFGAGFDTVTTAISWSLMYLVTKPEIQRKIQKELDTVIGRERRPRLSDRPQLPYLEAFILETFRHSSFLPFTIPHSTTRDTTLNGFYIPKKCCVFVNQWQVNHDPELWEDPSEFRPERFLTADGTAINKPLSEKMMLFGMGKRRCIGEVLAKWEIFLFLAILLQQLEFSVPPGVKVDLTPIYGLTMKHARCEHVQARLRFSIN

Cytochrome P450 2C19 = Cytochrome P450 2C19 (Homo sapiens, UniProt P33261); test: Inhibition of human CYP2C19 at 1uM; type: ADME
[8] = target: 5-hydroxytryptamine receptor 2A (Homo sapiens) (UniProt P28223); test: Inhibition of 5HT2A at 10uM
[9] = target: 5-hydroxytryptamine receptor 2B (Homo sapiens, UniProt P41595); test: Inhibition of 5HT2B
[10] = target: T6, Adrenergic receptor alpha-1 (Homo sapiens, UniProt P35348+P25100+P35368); test: Inhibition of adrenergic alpha-1 receptor; type: protein assay
T6 sequence (P35348 whole entry): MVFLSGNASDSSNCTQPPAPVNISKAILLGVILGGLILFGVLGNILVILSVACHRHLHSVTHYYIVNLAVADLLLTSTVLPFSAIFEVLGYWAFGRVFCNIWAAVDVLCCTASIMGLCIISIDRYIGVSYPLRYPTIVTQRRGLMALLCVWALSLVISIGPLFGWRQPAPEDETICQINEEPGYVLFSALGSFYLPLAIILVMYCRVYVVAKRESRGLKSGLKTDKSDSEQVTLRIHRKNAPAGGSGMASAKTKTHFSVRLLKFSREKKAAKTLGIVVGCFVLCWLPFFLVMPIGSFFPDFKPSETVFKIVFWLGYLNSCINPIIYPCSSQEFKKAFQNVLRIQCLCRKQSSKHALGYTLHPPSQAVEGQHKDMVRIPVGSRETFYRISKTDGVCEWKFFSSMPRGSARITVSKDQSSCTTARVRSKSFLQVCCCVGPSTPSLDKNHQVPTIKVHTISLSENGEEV
T6 sequence (P25100 whole entry): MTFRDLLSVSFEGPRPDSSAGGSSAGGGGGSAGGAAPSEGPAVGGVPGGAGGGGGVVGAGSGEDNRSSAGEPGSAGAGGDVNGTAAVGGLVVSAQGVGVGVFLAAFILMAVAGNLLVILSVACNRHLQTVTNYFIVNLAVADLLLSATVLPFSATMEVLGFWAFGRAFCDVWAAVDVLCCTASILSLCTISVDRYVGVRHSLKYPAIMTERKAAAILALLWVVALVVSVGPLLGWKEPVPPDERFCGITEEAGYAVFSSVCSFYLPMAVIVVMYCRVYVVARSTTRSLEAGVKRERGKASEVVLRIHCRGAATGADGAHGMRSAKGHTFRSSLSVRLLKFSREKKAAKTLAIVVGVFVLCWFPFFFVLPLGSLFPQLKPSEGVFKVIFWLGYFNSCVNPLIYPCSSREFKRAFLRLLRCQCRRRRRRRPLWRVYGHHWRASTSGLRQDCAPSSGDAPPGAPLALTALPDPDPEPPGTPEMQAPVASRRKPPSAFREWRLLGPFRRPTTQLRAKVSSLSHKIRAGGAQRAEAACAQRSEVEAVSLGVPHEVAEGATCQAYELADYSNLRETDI
T6 sequence (P35368 whole entry): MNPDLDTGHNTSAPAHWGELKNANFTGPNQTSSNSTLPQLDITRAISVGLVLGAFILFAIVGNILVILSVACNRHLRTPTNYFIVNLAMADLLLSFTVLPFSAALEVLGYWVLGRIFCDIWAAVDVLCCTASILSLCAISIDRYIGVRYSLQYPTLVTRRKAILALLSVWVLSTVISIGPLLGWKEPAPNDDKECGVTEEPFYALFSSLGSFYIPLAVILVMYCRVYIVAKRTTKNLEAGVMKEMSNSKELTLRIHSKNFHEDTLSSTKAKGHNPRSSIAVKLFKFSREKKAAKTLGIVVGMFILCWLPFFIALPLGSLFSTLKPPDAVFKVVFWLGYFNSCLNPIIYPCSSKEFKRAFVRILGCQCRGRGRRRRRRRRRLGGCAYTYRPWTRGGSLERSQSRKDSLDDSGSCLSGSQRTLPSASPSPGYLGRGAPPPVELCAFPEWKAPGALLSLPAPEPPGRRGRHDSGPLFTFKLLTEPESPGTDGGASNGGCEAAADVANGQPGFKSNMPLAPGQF

[11] = target: T2, Melanin-concentrating hormone receptor 2; test: Inhibition of MCH-R2 at 10uM
D(2) dopamine receptor [12] = target: T4, D(2) dopamine receptor; test: Inhibition of D2(L)
[13] = target: Adrenergic receptor alpha-1 (Homo sapiens) (UniProt P35348+P25100+P35368); test: Inhibition of adrenergic alpha-1 receptor at 10uM; type: protein assay
[14] = target: Voltage-gated inwardly rectifying potassium channel KCNH2 (Homo sapiens, UniProt Q12809); test: Inhibition of hERG in patch-clamp assay; type: toxicity

T1 sequence (Q99705 whole entry): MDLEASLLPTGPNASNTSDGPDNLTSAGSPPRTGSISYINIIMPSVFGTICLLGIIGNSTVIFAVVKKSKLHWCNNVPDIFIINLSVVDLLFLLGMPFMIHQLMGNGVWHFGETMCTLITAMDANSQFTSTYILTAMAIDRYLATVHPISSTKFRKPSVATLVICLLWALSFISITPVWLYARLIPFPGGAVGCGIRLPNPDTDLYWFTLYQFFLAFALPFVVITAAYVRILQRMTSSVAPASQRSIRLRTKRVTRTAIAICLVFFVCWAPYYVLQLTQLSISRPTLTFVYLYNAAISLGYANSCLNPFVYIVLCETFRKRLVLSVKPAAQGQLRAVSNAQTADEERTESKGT
T2 sequence (Q969V1 whole entry): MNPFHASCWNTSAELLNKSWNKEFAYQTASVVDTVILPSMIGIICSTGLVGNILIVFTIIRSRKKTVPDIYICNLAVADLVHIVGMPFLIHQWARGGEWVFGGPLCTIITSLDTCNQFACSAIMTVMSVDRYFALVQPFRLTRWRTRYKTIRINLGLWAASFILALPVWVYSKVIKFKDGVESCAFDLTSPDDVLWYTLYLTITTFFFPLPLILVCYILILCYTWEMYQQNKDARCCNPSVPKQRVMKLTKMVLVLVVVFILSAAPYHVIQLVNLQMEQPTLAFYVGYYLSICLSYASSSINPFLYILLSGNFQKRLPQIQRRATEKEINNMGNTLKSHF
T4 sequence (P14416 whole entry): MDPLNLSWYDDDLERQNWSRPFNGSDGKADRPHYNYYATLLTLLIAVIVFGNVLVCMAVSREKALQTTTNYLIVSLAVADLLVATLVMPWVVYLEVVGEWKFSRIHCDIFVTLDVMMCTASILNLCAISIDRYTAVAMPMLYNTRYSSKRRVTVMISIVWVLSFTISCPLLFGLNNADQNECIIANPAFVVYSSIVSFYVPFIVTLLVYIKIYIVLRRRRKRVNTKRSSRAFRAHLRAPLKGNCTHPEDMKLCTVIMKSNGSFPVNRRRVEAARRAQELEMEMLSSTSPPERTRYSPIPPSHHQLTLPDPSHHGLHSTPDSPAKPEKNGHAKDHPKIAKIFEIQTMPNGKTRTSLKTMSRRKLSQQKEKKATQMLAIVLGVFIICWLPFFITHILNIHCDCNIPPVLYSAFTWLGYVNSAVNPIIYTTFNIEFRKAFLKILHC
5-hydroxytryptamine receptor 2A (Homo sapiens), sequence (P28223 whole entry): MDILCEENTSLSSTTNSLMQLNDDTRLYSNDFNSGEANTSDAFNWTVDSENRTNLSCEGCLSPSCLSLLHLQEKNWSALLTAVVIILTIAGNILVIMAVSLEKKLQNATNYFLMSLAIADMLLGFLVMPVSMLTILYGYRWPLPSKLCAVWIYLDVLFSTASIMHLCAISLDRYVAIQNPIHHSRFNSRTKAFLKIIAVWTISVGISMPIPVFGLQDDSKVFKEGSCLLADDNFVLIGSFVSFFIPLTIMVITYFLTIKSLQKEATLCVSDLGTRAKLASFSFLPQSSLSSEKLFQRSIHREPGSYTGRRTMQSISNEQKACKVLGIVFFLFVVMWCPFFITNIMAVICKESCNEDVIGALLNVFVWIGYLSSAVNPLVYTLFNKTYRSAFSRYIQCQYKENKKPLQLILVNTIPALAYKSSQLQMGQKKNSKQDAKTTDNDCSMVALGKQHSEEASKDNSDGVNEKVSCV
Cytochrome P450 2C9, sequence (P11712 whole entry): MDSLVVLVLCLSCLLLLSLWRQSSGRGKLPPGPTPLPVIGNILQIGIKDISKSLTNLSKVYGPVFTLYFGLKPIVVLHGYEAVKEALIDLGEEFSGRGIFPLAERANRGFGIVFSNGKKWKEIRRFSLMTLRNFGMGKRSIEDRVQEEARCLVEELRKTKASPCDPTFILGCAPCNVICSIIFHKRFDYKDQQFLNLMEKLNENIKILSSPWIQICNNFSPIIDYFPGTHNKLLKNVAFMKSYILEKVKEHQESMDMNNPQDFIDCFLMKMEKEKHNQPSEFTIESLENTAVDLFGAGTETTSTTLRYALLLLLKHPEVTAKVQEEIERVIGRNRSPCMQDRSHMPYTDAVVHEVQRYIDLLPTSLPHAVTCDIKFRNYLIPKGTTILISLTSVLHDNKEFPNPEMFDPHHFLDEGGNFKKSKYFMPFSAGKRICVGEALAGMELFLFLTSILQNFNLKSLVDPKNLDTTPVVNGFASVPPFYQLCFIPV
Cytochrome P450 2D6, sequence (P10635 whole entry): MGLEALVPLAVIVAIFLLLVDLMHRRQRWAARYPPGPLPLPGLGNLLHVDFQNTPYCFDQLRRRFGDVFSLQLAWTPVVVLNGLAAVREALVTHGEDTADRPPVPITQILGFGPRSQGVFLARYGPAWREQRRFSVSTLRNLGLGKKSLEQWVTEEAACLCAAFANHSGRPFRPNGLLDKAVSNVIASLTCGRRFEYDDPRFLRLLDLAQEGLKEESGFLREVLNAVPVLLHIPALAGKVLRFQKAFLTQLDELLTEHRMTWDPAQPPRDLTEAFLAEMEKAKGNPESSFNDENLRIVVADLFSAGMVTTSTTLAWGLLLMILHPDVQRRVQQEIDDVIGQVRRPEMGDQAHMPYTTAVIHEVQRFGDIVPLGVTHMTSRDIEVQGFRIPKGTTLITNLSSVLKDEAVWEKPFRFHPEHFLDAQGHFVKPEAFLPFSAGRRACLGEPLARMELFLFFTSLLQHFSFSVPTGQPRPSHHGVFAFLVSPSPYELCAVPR
Cytochrome P450 3A4, sequence (P08684 whole entry): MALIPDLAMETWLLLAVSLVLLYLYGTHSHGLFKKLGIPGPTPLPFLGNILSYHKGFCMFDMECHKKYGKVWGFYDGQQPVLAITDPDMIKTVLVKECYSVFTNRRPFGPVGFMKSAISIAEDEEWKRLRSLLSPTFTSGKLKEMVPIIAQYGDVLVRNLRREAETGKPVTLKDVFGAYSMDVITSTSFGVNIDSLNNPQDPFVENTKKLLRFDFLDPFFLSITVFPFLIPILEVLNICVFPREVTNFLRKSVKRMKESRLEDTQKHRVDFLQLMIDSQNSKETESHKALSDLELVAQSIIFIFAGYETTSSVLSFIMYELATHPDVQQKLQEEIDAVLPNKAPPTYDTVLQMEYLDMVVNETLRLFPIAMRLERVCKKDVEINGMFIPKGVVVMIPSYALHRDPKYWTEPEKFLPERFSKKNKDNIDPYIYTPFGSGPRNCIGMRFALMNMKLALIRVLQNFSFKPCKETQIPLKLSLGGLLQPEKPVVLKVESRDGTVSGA
Cytochrome P450 2C19, sequence (P33261 whole entry): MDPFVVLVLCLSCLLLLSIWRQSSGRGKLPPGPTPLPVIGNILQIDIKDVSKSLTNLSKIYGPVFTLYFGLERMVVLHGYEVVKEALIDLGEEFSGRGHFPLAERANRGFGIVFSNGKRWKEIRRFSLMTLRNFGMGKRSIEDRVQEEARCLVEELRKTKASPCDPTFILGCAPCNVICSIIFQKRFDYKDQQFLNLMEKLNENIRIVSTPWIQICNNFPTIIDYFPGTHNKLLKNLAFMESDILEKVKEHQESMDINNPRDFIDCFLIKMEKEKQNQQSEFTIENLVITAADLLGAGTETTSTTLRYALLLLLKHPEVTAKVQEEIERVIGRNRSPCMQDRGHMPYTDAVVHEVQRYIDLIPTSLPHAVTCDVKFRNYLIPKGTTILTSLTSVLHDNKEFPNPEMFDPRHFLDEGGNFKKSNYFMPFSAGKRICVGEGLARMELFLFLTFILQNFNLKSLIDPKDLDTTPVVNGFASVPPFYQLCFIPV
5-hydroxytryptamine receptor 2B, sequence (P41595 whole entry): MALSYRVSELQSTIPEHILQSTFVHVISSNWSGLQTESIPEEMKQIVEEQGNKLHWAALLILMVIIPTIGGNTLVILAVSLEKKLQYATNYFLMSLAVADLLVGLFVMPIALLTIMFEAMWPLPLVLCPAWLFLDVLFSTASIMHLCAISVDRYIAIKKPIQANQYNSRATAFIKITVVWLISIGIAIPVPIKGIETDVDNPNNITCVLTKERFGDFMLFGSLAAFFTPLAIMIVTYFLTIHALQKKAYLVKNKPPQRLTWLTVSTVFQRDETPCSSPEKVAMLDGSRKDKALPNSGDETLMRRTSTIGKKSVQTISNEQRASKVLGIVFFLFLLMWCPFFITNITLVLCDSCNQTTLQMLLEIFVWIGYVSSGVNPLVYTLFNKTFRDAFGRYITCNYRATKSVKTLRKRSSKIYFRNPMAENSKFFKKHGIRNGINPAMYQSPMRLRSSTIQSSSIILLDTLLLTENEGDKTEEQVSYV

SMILES: O=C(COc1ccc(C(F)(F)F)cc1)Nc1ccc2nc(N3CCOCC3)cnc2c1
inhibition [1]: inactive

SMILES: O=C(COc1ccc(Cl)cc1)Nc1ccc2nc(N3CCOCC3)ccc2c1
pIC50 [2]: 6.02

SMILES: COc1ccc(OCC(=O)Nc2ccc3nc(N4CCCC4)nc(C)c3c2)cc1
pIC50 [3]: 7.39
pIC50 [2]: 6.41

SMILES: O=C(COc1ccc(Cl)cc1)Nc1ccc2nc(N3CCOCC3)cnc2c1
inhibition [1]: inactive

SMILES: Cc1nc(N2CCCC2)nc2ccc(NC(=O)COc3cccc(Cl)c3)cc12
Inhibition [1]: 7%

SMILES: Cc1nc(N(C)CCN(C)C)nc2ccc(NC(=O)COc3ccc(C(F)(F)F)cc3)cc12
pIC50 [3]: 6.79
pIC50 [2]: 6.59

SMILES: Cc1nc(N2CCCC2)nc2ccc(NC(=O)COc3ccc(Cl)cc3)cc12
pIC50 [3]: 7.24
inhibition [5]: 39%
Inhibition (Cytochrome P450 2C9): Not Active
pIC50 [2]: 6.60
inhibition [11]: 2%
Inhibition (Cytochrome P450 2D6): Not Active
pIC50 (D(2) dopamine receptor [12]): < 4.00
Inhibition (Cytochrome P450 3A4): Not Active
inhibition [13]: 28%
Inhibition (Cytochrome P450 1A2): Not Active
Inhibition (Cytochrome P450 2C19): Not Active
pIC50 [14]: 5.00
inhibition [8]: 0%
pIC50 [9]: 5.72

SMILES: Cc1nc(N2CCCC2)nc2ccc(NC(=O)COc3ccccc3Cl)cc12
pIC50 [2]: 5.71

More lines, now with the values ahead:

pIC50 [2]: 7.82
SMILES: Cc1cc(N2CCCC2)nc2ccc(NC(=O)COc3ccc(C(F)(F)F)cc3)cc12

pIC50 [3]: 8.05
pIC50 [2]: 7.46
SMILES: O=C(COc1ccc(C(F)(F)F)cc1)Nc1ccc2nc(N3CCCC3)[nH]c2c1

pIC50 [3]: 8.05
pIC50 [2]: 7.40
SMILES: Cn1c(N2CCCC2)nc2ccc(NC(=O)COc3ccc(C(F)(F)F)cc3)cc21

pIC50 [3]: 7.55
pIC50 [4]: < 4.52
inhibition [5]: 7%
Inhibition (Cytochrome P450 2C9): Not Active
pIC50 [2]: 7.60
Inhibition (Cytochrome P450 2D6): Not Active
Inhibition (Cytochrome P450 3A4): Not Active
solubility [6]: > 1000 µg/mL
inhibition (D(2) dopamine receptor [7]): 19%
Inhibition (Cytochrome P450 1A2): Not Active
Inhibition (Cytochrome P450 2C19): Not Active
inhibition [8]: 22%
pIC50 [9]: 5.82
IC50 [10]: 27000 nM
SMILES: CN(C)CCN(C)c1nc2ccc(NC(=O)COc3ccc(C(F)(F)F)cc3)cc2n1C

pIC50 [3]: 7.00
pIC50 [2]: 6.78
SMILES: Cc1nc(N2CCCC2)nc2ccc(NC(=O)COc3ccc(C(F)(F)F)cc3)cc12

pIC50 [2]: 6.76
SMILES: O=C(COc1ccc(C(F)(F)F)cc1)Nc1ccc2nc(N3CCOCC3)ccc2c1

pIC50 [3]: 7.00
pIC50 [2]: 7.15
SMILES: CC(C)Nc1nc2ccc(NC(=O)COc3ccc(C(F)(F)F)cc3)cc2n1C
